Measurements as given in publication PMC3413639 (PLoS ONE, 2012).
Where “and” joins values, the source holds several entries; their conditions need not be identical. Equal entries are not always repeated. Where two headings read alike, the source gives them in different places.

How the values were obtained:
[1] = biological target: T1, 5-HT1A receptors (Rattus norvegicus, UniProt P19327); assay: [11C]WAY-100635-PET of rats treated with 5,7-DHT, a toxicant for 5-HT neurons; conditions: 30 mg/kg oral
T1 sequence (P19327 1-422): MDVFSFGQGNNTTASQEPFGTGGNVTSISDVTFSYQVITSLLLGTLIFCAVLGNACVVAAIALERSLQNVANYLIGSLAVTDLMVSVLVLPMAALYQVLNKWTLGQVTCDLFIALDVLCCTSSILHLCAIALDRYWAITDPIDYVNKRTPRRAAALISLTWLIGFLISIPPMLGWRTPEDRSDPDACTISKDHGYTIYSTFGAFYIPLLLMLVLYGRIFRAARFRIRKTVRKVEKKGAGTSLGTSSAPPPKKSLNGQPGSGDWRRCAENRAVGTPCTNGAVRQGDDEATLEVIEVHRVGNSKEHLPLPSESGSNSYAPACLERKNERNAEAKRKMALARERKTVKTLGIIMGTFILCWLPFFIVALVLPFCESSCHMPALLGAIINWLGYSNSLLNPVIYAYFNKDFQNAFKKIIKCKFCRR

[2] = biological target: T1, 5-HT1A receptors; assay: Autoradiographic [35S]GTPγS binding in rat brain sections; type: biochemical; set-up: Twenty-micrometer-thick frozen brain sections were preincubated; from tissue; host or cells: rat brain (hippocampus and raphe nucleus): frozen sections or living animals; conditions: raphe nucleus; 10 µM; p<0.01; increment smaller than that by 8-OH-DPAT
Description: Autoradiographic procedures were performed as described previously, with some modifications. The sections were preincubated for 15 min in 50 mM 4-(2-hydroxyethyl)-1-piperazineethanesulfonic acid (HEPES; pH 7.4) containing 10 mM NaCl, 3 mM MgCl2 and 0.2 mM ethylene glycol tetraacetic acid. A second preincubation using the same buffer containing 2 mM GDP was performed for 15 min. The sections were subsequently incubated in the same buffer containing 2 mM GDP, 0.2 mM dithiothreitol and 0.04 nM [^35S]GTPγS for 120 min. Basal [^35S]GTPγS binding was defined in the absence of test drugs. […] Nonspecific binding was estimated using 10 µM nonradioactive GTPγS. The incubation was terminated by ice-cold 50 mM HEPES (pH 7.0). The sections were desalted with ice-cold distilled water, dried, and placed in contact with an imaging plate for 2 days. Signal detection and image analysis were performed as described above.

[3] = biological target: T1, 5-HT1A receptors; assay: [11C]WAY-100635-PET, BPND and 5-HT1A receptor occupancy; type: in vivo; set-up: Twenty-micrometer-thick frozen brain sections were preincubated; from tissue; host or cells: rat brain (hippocampus and raphe nucleus): frozen sections or living animals; conditions: for BPND Hippocampus / BPND Raphe: [11C]WAY-100635, about 5 h before scan, mean ± S.E.; for receptor occupancy at 1 mg/kg / receptor occupancy at 3 mg/kg / receptor occupancy at 10 mg/kg / receptor occupancy at 30 mg/kg / receptor occupancy at 100 mg/kg: rat
Description: All PET scans were carried out using a microPET Focus 220 scanner (Siemens Medical Solutions USA, Knoxville, TN). The rats were anesthetized with 1.5–2% isoflurane in air (2 L/min flow rate). […] All list-mode data were stored into 3D sinograms, which were then Fourier-rebinned into 2D sinograms (26 frames: 4×1, 8×2, and 14×5 min). Images were reconstructed using 2D-filtered back-projection with a 0.5-mm Hanning filter. All PET images were manually coregistered to the MRI template by spatial translation and rotation of original PET images without geometric expansion and contraction. ROIs were placed on the hippocampus and raphe nucleus using PMOD® image analysis software (PMOD Group, Zurich, Switzerland) with reference to the MRI template. Fine-tuning of the location of ROIs was then performed based on PET images at an early phase (0–30 min) of the scan in order to compensate for small mismatches between coregistered PET and MR images. The cerebellum was used as reference tissue because of its negligible density of 5-HT1A receptors.

[4] = tested on: 5-HTTs; set-up: method as in PMID 19236731; conditions: cited from earlier work
[5] = biological target: T1, 5-HT1A receptors; set-up: method as in earlier work; conditions: rat hippocampal homogenates; read-out: Ki (in vitro estimate); cited from earlier work
[6] = biological target: T1, 5-HT1A receptors; assay: Ex vivo ARG, 5-HT1A receptor occupancy after drug administration; type: in vivo; set-up: Twenty-micrometer-thick frozen brain sections were preincubated; from tissue; host or cells: rat brain (hippocampus and raphe nucleus): frozen sections or living animals; conditions: for ED50: rat, po, ex vivo ARG, read-out: ED50 (5-HT1A receptor occupancy)
Description: Animals were then killed by decapitation 5 h and 30 min after their administration, respectively. Autoradiographic analysis was performed using procedures similar to in vitro ARG except for incubation temperature (37°C) and times for preincubation (30 sec), incubation (5 min) and rinsing (1 min). […] The doses of these drugs at half-maximal effect (ED50) were determined according to the following relationship: [drawing 2] where D is the dose of the drug.

[7] = biological target: T1, 5-HT1A receptors; assay: [18F]MPPF PET, BPND and 5-HT1A receptor occupancy; type: in vivo; set-up: Rats were sacrificed by decapitation; Twenty-micrometer-thick frozen brain sections were preincubated; from tissue; host or cells: rat brain (hippocampus and raphe nucleus): frozen sections or living animals; conditions: mean ± S.E.; for receptor occupancy at 30 mg/kg: rat
[8] = Brain-to-plasma ratio of Wf-516; type: in vivo; conditions: at the time of reaching maximal plasma concentration, unpublished data
[9] = po, read-out: Occupancy (%) Hippocampus
[10] = po, read-out: Occupancy (%) Raphe

## Cc1nnc(-c2cc3c(OC[C@@H](O)CN4CCC(c5ccc(Cl)c(Cl)c5)CC4)cccc3o2)o1.Cl [Wf-516, (2S)-1-[4-(3,4-dichlorophenyl)piperidin-1-yl]-3-[2-(5-methyl-1,3,4-oxadiazol-2-yl)benzo[b]furan-4-yloxy]propan-2-ol monohydrochloride]
[1]; hippocampus, compared with baseline
  Change of BPND in 5,7-DHT-treated rats: significant decrease of BPND
[1]; raphe nucleus
  Change of BPND in 5,7-DHT-treated rats: no additional reduction of BPND
[2]
  [35S]GTPγS binding compared with 1 µM WAY-100635: significantly increased
[3]; 1 mg/kg oral
  BPND Hippocampus: 5.612±0.356
  BPND Raphe: 2.128±0.109
[3]; 3 mg/kg oral
  BPND Hippocampus: 5.589±0.410
  BPND Raphe: 2.024±0.097
[3]; 10 mg/kg oral
  BPND Hippocampus: 4.937±0.550
  BPND Raphe: 1.620±0.126
[3]; 30 mg/kg oral
  BPND Hippocampus: 4.836±0.441
  BPND Raphe: 1.271±0.194
[3]; 100 mg/kg oral
  BPND Hippocampus: 4.962±0.400
  BPND Raphe: 1.212±0.073
[3]; oral, PET regression curves
  Difference in maximal occupancy between hippocampus and raphe nucleus: more than 2.5 fold
[3]; raphe nucleus, oral, PET
  Maximal occupancy as calculated by the regression curve: 53.8% and ~50%
[3]; [9]
  receptor occupancy at 1 mg/kg: 7 ± 2.7%
  receptor occupancy at 3 mg/kg: 6.8 ± 7.1%
  receptor occupancy at 10 mg/kg: 18.8 ± 6%
  receptor occupancy at 30 mg/kg: 20.3 ± 4.1%
  receptor occupancy at 100 mg/kg: 17.8 ± 4.9%
[3]; [10]
  receptor occupancy at 1 mg/kg: 8.5 ± 7.6%
  receptor occupancy at 3 mg/kg: 13.2 ± 6.1%
  receptor occupancy at 10 mg/kg: 30.6 ± 6.4%
  receptor occupancy at 30 mg/kg: 46.3 ± 6.9%
  receptor occupancy at 100 mg/kg: 48.2 ± 3.3%
[3]; 3 mg/kg oral, PET, read-out: Difference in occupancy between hippocampus and raphe nucleus
  receptor occupancy at 3 mg/kg: ~100%
[4]; previous PET study
  ED50 for blockade of 5-HTTs: 3 mg/kg
[4]; previous observation
  Occupancy of 5-HTT among regions: homogenous among regions
[5]
  Ki: 7.4 nM
[6]; oral, 5 h after administration, irrespective of region
  5-HT1A receptor binding (occupancy), dose-dependent up to: approximately 80%
[6]; hippocampus
  ED50: 5.3 mg/kg
[6]; raphe nucleus
  ED50: 4.2 mg/kg
[7]; 30 mg/kg
  BPND Hippocampus: 1.100±0.015
  BPND Raphe: 0.227±0.027
[7]; read-out: Occupancy (%) Hippocampus
  receptor occupancy at 30 mg/kg: 23.3 ± 1.5%
[7]; read-out: Occupancy (%) Raphe
  receptor occupancy at 30 mg/kg: 45.7 ± 6.5%
[8]
  Kp: ~2
